# Results as given in the OPERA property sets (Mansouri et al. 2018).
Structure (SMILES),boiling point [°C],melting point [°C],log10 vapour pressure (mmHg),log10 Henry constant (atm·m³/mol),ready biodegradability,log10 Koc (L/kg),log10 biodegradation half-life (days),log10 Koa
CC(C)C(=O)C(=O)C(C)C,144,–,–,–,–,–,–,–
O=C(O)CCOc1cccc2ccccc12,–,146,–,–,–,–,–,–
C=C1C[C@H]2[C@@H]3CCC4=CC(=O)C=C[C@]4(C)[C@H]3[C@@H](O)C[C@]2(C)[C@@]1(O)C(=O)CO,–,234,–,–,–,–,–,–
CCCCCCCCCCF,186,-35,-0.203,–,–,–,–,–
CC(C)CC(C)N (stereo unspecified),109,–,–,-4.51,–,–,–,–
C=CCC1CCCC1,125,-111,–,–,–,–,–,–
O=C(O)CCCCCCC[C@H](O)[C@H](O)CCCCCCO,–,100,–,–,–,–,–,–
COc1ccc(COC(=O)Cc2ccccc2)cc1,370,–,–,–,–,–,–,–
Clc1cccnc1Cl,–,66,–,–,–,–,–,–
NC(=O)CC[C@H](N)C(=O)O,–,–,–,–,readily biodegradable,–,–,–
COc1ccc2c3c1O[C@H]1[C@@H](O)CC=C4[C@@H](C2)N(C)CC[C@]431,–,128,–,–,–,–,–,–
COP(=S)(OC)Oc1nc(Cl)c(Cl)cc1Cl,–,43,-4.38,–,–,3.52,–,–
CC(C)C(=NO)C(C)C,181,34,–,–,–,–,–,–
NNCCO,219,-70,–,–,–,–,–,–
CCCCNCC(O)c1ccc(O)cc1 (stereo unspecified),–,124,–,–,–,–,–,–
C[C@]12CCC(=O)C=C1CC[C@@H]1[C@@H]2CC[C@@]2(C)[C@H]1CC[C@]2(C)O,–,163,–,–,–,–,–,–
Cc1cnc(NS(=O)(=O)c2ccc(N)cc2)nc1,–,262,–,–,–,–,–,–
Clc1ccc2c(Cl)c(Cl)c(Cl)c(Cl)c2c1,–,–,-5.96,–,–,–,–,–
CCCCCCCCCCCCC#N,293,9.7,–,–,–,–,–,–
Cc1cc(N)nc(C)n1,–,183,–,–,–,–,–,–
C=C(C)c1cccc(C(=C)C)c1,231,–,–,–,–,–,–,–
COCCCCl,111,–,–,–,–,–,–,–
CCCC(C=O)CCC,160,–,–,–,–,–,–,–

Structure (SMILES),boiling point [°C],melting point [°C],log10 vapour pressure (mmHg),log10 Henry constant (atm·m³/mol),ready biodegradability,log10 Koc (L/kg),log10 biodegradation half-life (days),log10 Koa
CC1(C)OC[C@@H]2O[C@@]3(C(=O)O)OC(C)(C)O[C@H]3[C@@H]2O1,–,74,–,–,–,–,–,–
CC[C@@H]1C(=O)OC[C@@H]1Cc1cncn1C,–,34,–,–,–,–,–,–
CC(C)(Cl)Cl,69.3,-33.8,–,–,–,–,–,–
OCCCCCC(F)(F)F,166,–,–,–,–,–,–,–
NCCCN1CCN(CCCN)CC1,–,15,–,–,–,–,–,–
CCOC(=O)C(CC)(CC)C(C)=O,216,–,–,–,–,–,–,–
Cc1ccc(-c2cc(C(F)(F)F)nn2-c2ccc(S(N)(=O)=O)cc2)cc1,–,158,–,–,–,–,–,–
OC[C@H]1O[C@H](OC[C@H]2O[C@H](O)[C@H](O)[C@@H](O)[C@@H]2O)[C@H](O)[C@@H](O)[C@H]1O,–,86,–,–,–,–,–,–
FC(F)(F)CCl,6.1,-106,–,–,–,–,–,–
CCCCCCCCC=CCCCCCCCC(=O)Nc1ccccc1,–,41,–,–,–,–,–,–
Cc1ccc(CC(=O)O)cc1,265,93,–,–,–,–,–,–
O=C1C[C@@H](c2ccc(O)cc2)Oc2cc(O)cc(O)c21,–,251,–,–,–,–,–,–
CCCCCCCCC=CCCCCCCCC(=O)OCCCC,–,–,–,–,readily biodegradable,–,–,–
C=CCN1CC[C@]23c4c5ccc(O)c4O[C@H]2[C@@H](O)C=C[C@H]3[C@H]1C5,–,208,–,–,–,–,–,–
CCCCCCCCCCC(C)C(=O)O (stereo unspecified),–,22,–,–,–,–,–,–
C[C@]12CC[C@@H](O)C[C@@H]1CC[C@@H]1[C@@H]2CC[C@]2(C)C=CC[C@@H]12,–,143,–,–,–,–,–,–
CCCCCCCCCCCCCCC(=O)O,339,52.3,-6.36,–,–,–,–,–
CC1CCCC1,71.8,-142,2.14,–,–,–,0.602,–
CCCC(O)C(CC)CO (stereo unspecified),244,-40,-2.52,–,–,–,–,–
C=C(C)C(C)Cl (stereo unspecified),94,–,–,–,–,–,–,–
BrC(Br)(Br)c1ccc2ccccc2n1,–,128,–,–,–,–,–,–
CC(=O)Oc1ccc(C)c(C)c1,235,22,–,–,–,–,–,–
Cc1nc2ccccc2[nH]1,–,176,–,–,–,–,–,–

Structure (SMILES),boiling point [°C],melting point [°C],log10 vapour pressure (mmHg),log10 Henry constant (atm·m³/mol),ready biodegradability,log10 Koc (L/kg),log10 biodegradation half-life (days),log10 Koa
CCOC(=O)c1cncn1C(C)c1ccccc1 (stereo unspecified),–,67,–,–,–,–,–,–
NCCC(=O)O,–,–,–,–,readily biodegradable,–,–,–
CN1CCC[C@H]1c1cccnc1,247,-79,-1.42,–,–,2.01,–,–
CNC(N)=O,–,103,–,–,–,–,–,–
COc1cc([C@@H]2c3cc4c(cc3C(O[C@@H]3O[C@@H]5COC(c6cccs6)O[C@H]5[C@H](O)[C@H]3O)C3COC(=O)[C@@H]32)OCO4)cc(OC)c1O (stereo partly specified),–,244,–,–,–,–,–,–
CC1(C)[C@@H](OC(=O)CCC(=O)O)CC[C@]2(C)[C@H]3C(=O)C=C4[C@@H]5C[C@@](C)(C(=O)O)CC[C@]5(C)CC[C@@]4(C)[C@]3(C)CC[C@@H]12,–,292,–,–,–,–,–,–
CN(C)C(=O)COC(=O)c1ccccc1,–,81.5,–,–,–,–,–,–
N#CCc1cccc2ccccc12,–,32.5,–,–,–,–,–,–
c1cc2c3c(c4ccc5ccccc5c4cc3c1)CC2,–,174,–,–,–,–,–,–
CCC(C(=O)NC(N)=O)c1ccccc1 (stereo unspecified),–,162,–,–,–,–,–,–
O=C(n1ccnc1)n1ccnc1,–,119,–,–,–,–,–,–
COC(C)(C)CCCC(C)C/C=C/C(C)=C/C(=O)OC(C)C (stereo unspecified),–,–,-4.63,–,–,–,–,–
CCC(=O)CO,160,–,–,–,–,–,–,–
Clc1cccc2ccccc12,259,-2.5,-1.54,-3.45,not readily biodegradable,–,–,5.8
CC(=O)N(c1onc(C)c1C)S(=O)(=O)c1ccc(N)cc1,–,194,–,–,–,–,–,–
COc1ccccc1C,171,-34.1,–,–,–,–,–,–
CCCCCCOc1ccccc1C(N)=O,–,71,–,–,–,–,–,–
CC(C)Sc1ccccc1,208,–,–,–,–,–,–,–
CC[N+]1(C)CCCC(OC(=O)C(O)(c2ccccc2)c2ccccc2)C1.[Br-] (stereo unspecified),–,180,–,–,–,–,–,–
CCCCCCCCCC(C)O (stereo unspecified),–,–,-1.48,–,–,–,–,–
O=C(O)C(Cl)(Cl)Cl,196,57.5,-1.22,-7.87,not readily biodegradable,0.3,–,–
